Measured values published in patent US5807700A, “Method of screening anti-amebic agents with an E. coli mutant having a deleted adhE gene complemented by the E. histolytica EhADH2 gene” (Washington University, priority 1995, dated 1998).

How the values were obtained:
[1] = biological target: T1, purified recombinant EhADH2 (Entamoeba histolytica, UniProt Q24803); assay: Substrate specificity and kinetics, ADH activity of purified recombinant EhADH2; assay type: biochemical; conditions: for substrate for the enzyme (ADH reactivity): purified recombinant EhADH2, 1 mM NAD+, pH 9.5
T1 construct: a NcoI site at the initiating ATG codon using PCR with the EhADH2 cDNA as the template; made in house; host or cells: E. coli SHH31(DE3) carrying pET/EhADH2
T1 sequence (Q24803 1-870): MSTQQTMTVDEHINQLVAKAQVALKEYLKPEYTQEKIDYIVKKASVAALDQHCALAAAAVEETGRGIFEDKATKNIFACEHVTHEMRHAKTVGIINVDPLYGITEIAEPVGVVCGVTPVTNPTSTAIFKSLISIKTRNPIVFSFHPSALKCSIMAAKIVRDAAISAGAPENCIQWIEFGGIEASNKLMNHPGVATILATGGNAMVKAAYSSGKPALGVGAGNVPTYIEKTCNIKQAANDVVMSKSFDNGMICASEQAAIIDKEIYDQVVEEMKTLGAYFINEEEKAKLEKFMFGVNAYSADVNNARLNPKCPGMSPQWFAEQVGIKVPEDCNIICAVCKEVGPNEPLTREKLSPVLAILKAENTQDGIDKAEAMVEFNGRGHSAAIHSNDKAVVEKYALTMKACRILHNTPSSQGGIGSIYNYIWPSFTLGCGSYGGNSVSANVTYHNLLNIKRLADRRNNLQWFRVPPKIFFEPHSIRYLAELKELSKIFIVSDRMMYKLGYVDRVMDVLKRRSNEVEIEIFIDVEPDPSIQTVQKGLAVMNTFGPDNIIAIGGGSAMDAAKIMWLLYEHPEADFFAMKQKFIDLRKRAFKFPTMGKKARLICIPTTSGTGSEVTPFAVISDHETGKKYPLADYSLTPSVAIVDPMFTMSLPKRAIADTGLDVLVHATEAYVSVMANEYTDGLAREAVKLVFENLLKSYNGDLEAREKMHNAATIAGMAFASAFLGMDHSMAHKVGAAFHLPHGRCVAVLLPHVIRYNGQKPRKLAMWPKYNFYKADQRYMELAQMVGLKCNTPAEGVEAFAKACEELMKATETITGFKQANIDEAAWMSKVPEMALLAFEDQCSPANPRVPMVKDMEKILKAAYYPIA
Experimental: (§1) ADH activity of the supernatant fraction from bacterial lysates, or of the purified recombinant enzyme was assayed spectrophotometrically by measuring the decrease in absorbance at 340 nm following the oxidation of NADH to […] (21). The cuvette contained 6 mM DTT, 5 mM MgSO4, 0.1 mM Fe(NH4)2 (SO4)2, 0.4 mM NADH, 10 mM acetaldehyde, and 0.1 M MOPS-KOH buffer (pH 7.5) to give a final volume of 1.0 ml. MOPS=3-[N-Morpholino]propanesulfonic acid; DTT=dithiothreitol.
(§2) To study the substrate specificity and kinetics of the purified recombinant EhADH2 molecule, the spectrophotometric assay of ADH activity was again utilized, with 5 μg of the purified enzyme in the presence of 50 mM glycine/NaOH buffer (pH 9.5) containing 6 mM DTT, 5 mM MgSO4, 0.1 mM Fe(NH4)2 (SO4)2, 1 mM […], and varying concentrations of the substrate alcohol to be tested (11). The Km and Kcat values expressed were determined using non-linear regression to fit the values for initial velocity and substrate concentration to the Michaelis-Menten equation.

native EhADH2 enzyme = biological target: T2, native EhADH2 enzyme (Entamoeba histolytica, UniProt Q24803); conditions: read-out: Km reported for native EhADH2 enzyme; cited from earlier work
T2 construct: essentially identical to that reported for the native EhADH2 enzyme (80 mM) (11)

E. coli AdhE enzyme = E. coli AdhE enzyme (Escherichia coli, UniProt P0A9Q7); conditions: read-out: Km for the E. coli AdhE enzyme; cited from earlier work
recombinant EhADH2 = biological target: T3, recombinant EhADH2 (Entamoeba histolytica, UniProt Q24803); assay: Inhibition of purified recombinant EhADH2 enzyme (Ki); assay type: biochemical; conditions: read-out: Ki for the recombinant EhADH2 molecule
T3 construct: a NcoI site at the initiating ATG codon using PCR with the EhADH2 cDNA as the template; made in house; host or cells: E. coli SHH31(DE3) carrying pET/EhADH2
T3 sequence (Q24803 1-870): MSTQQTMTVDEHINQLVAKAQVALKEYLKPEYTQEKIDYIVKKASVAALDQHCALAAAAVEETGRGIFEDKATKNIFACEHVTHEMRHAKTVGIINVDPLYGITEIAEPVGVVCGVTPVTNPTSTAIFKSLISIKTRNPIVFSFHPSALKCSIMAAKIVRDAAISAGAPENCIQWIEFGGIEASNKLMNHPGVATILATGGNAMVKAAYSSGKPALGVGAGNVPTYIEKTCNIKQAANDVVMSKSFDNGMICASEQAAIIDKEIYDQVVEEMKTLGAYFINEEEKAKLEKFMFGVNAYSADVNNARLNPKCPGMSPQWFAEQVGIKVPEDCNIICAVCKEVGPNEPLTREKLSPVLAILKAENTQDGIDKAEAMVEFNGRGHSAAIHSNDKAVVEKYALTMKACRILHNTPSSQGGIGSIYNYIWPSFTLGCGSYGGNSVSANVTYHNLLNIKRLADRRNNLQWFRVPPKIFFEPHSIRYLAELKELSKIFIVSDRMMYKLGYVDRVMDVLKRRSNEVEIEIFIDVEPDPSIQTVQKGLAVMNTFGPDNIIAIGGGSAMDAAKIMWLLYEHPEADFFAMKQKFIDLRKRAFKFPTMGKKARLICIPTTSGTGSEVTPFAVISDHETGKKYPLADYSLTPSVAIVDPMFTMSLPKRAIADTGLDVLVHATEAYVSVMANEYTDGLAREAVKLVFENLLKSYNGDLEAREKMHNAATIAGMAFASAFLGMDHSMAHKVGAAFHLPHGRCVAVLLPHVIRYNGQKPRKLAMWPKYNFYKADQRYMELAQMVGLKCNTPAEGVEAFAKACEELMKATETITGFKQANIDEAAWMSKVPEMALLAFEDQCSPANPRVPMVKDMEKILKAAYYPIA
Experimental: as §1, §2

[2] = system: E. coli SHH31/pMON/EhADH2; assay: EhADH2 inhibition assay: growth of E. coli SHH31 transformed with pMON/EhADH2 (O.D. at 600 nm); assay type: cell-based; conditions: M9 minimal liquid medium, pyrazole 5 to 20 mM, O.D. 600 nm at 24 and 48 hrs
Experimental: E. coli and E. histolytica strains and culture conditions. Conventional E. coli strains, DH5α, BL21(DE3), and SHH31 (Δadh zch::Tn10 fadR met tyrT) (15) were used for transformation and the expression of recombinant EhADH2. Aerobic cultures were grown in LB medium with agitation at 37° C. For anaerobic growth, bacteria were incubated in anaerobic jars, BBL®GasPak® System under an H2 -CO2 atmosphere generated by BBL GAS PAK Anaerobic System Envelopes (Becton Dickinson, Cockeysville, Md.).
Anaerobic indicator strips were used to ensure anaerobic conditions. M9 minimal medium used for anaerobic growth was supplemented with glucose at 0.25%, thiamine (1 mM), CaCl2 (0.1 mM), MgSO4 (1.2 mM), and the following trace minerals: Fe(50 μM), Se(5 μM), Mo(5 μM), Mn(5 μM) (16).
Anaerobic liquid cultures were grown without agitation in tubes inside the anaerobic jars at 37° C. Solid media contained 1.5% Bacto Agar (Difco, Detroit, Mich.). […]
(§3) E. coli SHH31 transformed with pMON/EhADH2 were inoculated into M9 minimal liquid medium and grown under anaerobic or aerobic conditions in the presence or absence of pyrazole (Sigma Chemical Co., St. Louis, Mo.) at concentrations of 5 to 20 mM. Growth was monitored by determining the optical density (O.D.) at 600 nm at 24 and 48 hrs post-inoculation. […] Viable trophozoites were counted using a hemacytometer at days 2 and 4, and the number of trophozoites/ml recorded.

[3] = system: E. histolytica HM1:IMSS trophozoites; assay: Inhibition of E. histolytica growth (viable trophozoite count); assay type: cell-based, Entamoeba histolytica; set-up: effect on E. histolytica growth: dose or concentration left out as unconfirmed
Experimental: Anaerobic liquid cultures were grown without agitation in tubes inside the anaerobic jars at 37° C. Solid media contained 1.5% Bacto Agar (Difco, Detroit, Mich.). Trophozoites of E. histolytica HM1:IMSS were cultured axenically in BYI-S-33 medium by conventional procedure as previously described (17).
as §3

EhADH1 = biological target: T4, EhADH1 (Entamoeba histolytica, UniProt P35630); conditions: NADP+-dependent EhADH1; cited from earlier work
T4 sequence (P35630 1-366): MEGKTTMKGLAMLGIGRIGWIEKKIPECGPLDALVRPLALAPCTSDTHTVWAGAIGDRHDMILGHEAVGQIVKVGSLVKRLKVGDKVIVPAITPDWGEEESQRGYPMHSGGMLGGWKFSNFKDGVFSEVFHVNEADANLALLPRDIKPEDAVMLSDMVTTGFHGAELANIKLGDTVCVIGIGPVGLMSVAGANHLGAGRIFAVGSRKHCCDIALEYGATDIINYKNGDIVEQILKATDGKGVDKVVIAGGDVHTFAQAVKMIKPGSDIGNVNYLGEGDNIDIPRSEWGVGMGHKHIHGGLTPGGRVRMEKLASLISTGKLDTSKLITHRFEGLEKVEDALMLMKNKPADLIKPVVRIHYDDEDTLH

[4] = substrate: CC=O; assay: Substrate specificity and kinetics, ADH activity of purified recombinant EhADH2; assay type: biochemical, Entamoeba histolytica; conditions: other: reaction acetaldehyde + NADH
Experimental: (§5) To study the substrate specificity and kinetics of the purified recombinant EhADH2 molecule, the spectrophotometric assay of ADH activity was again utilized, with 5 μg of the purified enzyme in the presence of 50 mM glycine/NaOH buffer (pH 9.5) containing 6 mM DTT, 5 mM MgSO4, 0.1 mM Fe(NH4)2 (SO4)2, 1 mM AND^+, and varying concentrations of the substrate alcohol to be tested (11). The Km and Kcat values expressed were determined using non-linear regression to fit the values for initial velocity and substrate concentration to the Michaelis-Menten equation.

[5] = substrate: CCCO; assay: as above; assay type: biochemical, Entamoeba histolytica; conditions: other: reaction 1-propanol + NAD+
Experimental: as §5

[6] = substrate: CCO; assay: as above; assay type: biochemical, Entamoeba histolytica; conditions: other: reaction ethanol + NAD+
Experimental: as §5

[7] = substrate: NC(=O)C1=CN([C@@H]2O[C@H](COP(=O)(O)OP(=O)(O)OC[C@H]3O[C@@H](n4cnc5c(N)ncnc54)[C@H](O)[C@@H]3O)[C@@H](O)[C@H]2O)C=CC1; assay: as above; assay type: biochemical, Entamoeba histolytica; conditions: other: reaction acetaldehyde + NADH
Experimental: as §5

[8] = substrate: CC(=O)SCCNC(=O)CCNC(=O)[C@H](O)C(C)(C)COP(=O)(O)OP(=O)(O)OC[C@H]1O[C@@H](n2cnc3c(N)ncnc32)[C@H](O)[C@@H]1OP(=O)(O)O; assay: ALDH activity kinetics of purified recombinant EhADH2; assay type: biochemical, Entamoeba histolytica; conditions: other: reaction acetyl-CoA + NADH; pH 9.5
Experimental: (§4) ALDH activity was assayed using the same method, with the substitution of 0.1 mM acetyl-CoA for acetaldehyde in the reaction buffer. A unit of enzyme activity is defined as the micromoles of product formed per min of incubation at room temperature.
as §2

[9] = substrate: NC(=O)C1=CN([C@@H]2O[C@H](COP(=O)(O)OP(=O)(O)OC[C@H]3O[C@@H](n4cnc5c(N)ncnc54)[C@H](O)[C@@H]3O)[C@@H](O)[C@H]2O)C=CC1; assay: as above; assay type: biochemical, Entamoeba histolytica; conditions: other: reaction acetyl-CoA + NADH; pH 9.5
Experimental: as §4, §2

E. coli AdhE enzyme, sequence (P0A9Q7 whole entry): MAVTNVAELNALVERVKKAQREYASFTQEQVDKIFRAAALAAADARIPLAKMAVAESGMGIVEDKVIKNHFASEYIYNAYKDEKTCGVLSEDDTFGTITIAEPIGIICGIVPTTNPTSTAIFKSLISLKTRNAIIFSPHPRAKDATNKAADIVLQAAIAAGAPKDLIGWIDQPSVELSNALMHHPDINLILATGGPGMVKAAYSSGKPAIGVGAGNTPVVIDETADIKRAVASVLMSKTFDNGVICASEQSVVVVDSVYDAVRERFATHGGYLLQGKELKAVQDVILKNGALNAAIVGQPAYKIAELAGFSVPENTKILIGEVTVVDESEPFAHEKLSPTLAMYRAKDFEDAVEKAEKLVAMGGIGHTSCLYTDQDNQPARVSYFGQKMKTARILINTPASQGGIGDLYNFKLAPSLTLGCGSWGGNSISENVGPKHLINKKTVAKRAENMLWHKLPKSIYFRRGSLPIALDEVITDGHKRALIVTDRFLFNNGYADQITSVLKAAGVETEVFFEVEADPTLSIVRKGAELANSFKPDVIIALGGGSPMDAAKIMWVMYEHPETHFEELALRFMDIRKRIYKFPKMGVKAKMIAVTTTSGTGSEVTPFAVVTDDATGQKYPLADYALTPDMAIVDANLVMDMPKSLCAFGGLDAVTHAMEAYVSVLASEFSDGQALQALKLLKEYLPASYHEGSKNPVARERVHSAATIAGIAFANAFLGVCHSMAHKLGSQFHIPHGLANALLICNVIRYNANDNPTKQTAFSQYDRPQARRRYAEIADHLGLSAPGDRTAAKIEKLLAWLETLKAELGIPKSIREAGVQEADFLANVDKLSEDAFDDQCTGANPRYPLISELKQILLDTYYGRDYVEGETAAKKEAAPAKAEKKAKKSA

`NC(=O)c1ccc[n+]([C@@H]2O[C@H](COP(=O)(O)OP(=O)(O)OC[C@H]3O[C@@H](n4cnc5c(N)ncnc54)[C@H](O)[C@@H]3O)[C@@H](O)[C@H]2O)c1` [NAD^+] gave a Km ([1]; reaction 1-propanol + NAD+) of 250 µM and a Km ([1]; reaction ethanol + NAD+) of 550 µM.

For `CC=O` [acetaldehyde], the Km (native EhADH2 enzyme) is given as 150 µM.

In the case of `CCO` [ethanol], the Km (native EhADH2 enzyme) is given as 80000 µM and the Km (E. coli AdhE enzyme) is given as 30000 µM.

With `CC(C)O` [isopropanol] the “substrate for the enzyme (ADH reactivity)” value (shortened to “substrate for the enzyme”) [1] was “No reactivity”.

For `CO` [methanol], the “substrate for the enzyme” value [1] was “neither retinol nor methanol were substrates”.

For `c1cn[nH]c1` [pyrazole], the Ki (recombinant EhADH2) was 7.24 mM, the “effect on growth under aerobic conditions” value ([2]; aerobic) was “much reduced effect” and the “inhibition of anaerobic growth of SHH31/pMON/EhADH2” value ([2]; anaerobic) was “in a dose-dependent manner significantly inhibited”. The “effect on E. histolytica growth” value [3] was “no effect”, the “inhibition of growth of E. histolytica trophozoites” value ([3]; concentration of 20 to 40 mM, viable trophozoites at days 2 and 4) was “significantly inhibited amebic growth” and the Ki (EhADH1) was 0.0014 mM.

With `CC1=C(/C=C/C(C)=C/C=C/C(C)=C/CO)C(C)(C)CCC1` [retinol] the “substrate for the enzyme” value [1] was “neither retinol nor methanol were substrates”.

With `CCC(C)O` (stereo not drawn) [sec-butanol] the “substrate for the enzyme” value [1] was “No reactivity”.

B1: purified recombinant EhADH2 (Entamoeba histolytica HM-1:IMSS) (protein)
chain: MSTQQTMTVDEHINQLVAKAQVALKEYLKPEYTQEKIDYIVKKASVAALDQHCALAAAAVEETGRGIFEDKATKNIFACEHVTHEMRHAKTVGIINVDPLYGITEIAEPVGVVCGVTPVTNPTSTAIFKSLISIKTRNPIVFSFHPSALKCSIMAAKIVRDAAISAGAPENCIQWIEFGGIEASNKLMNHPGVATILATGGNAMVKAAYSSGKPALGVGAGNVPTYIEKTCNIKQAANDVVMSKSFDNGMICASEQAAIIDKEIYDQVVEEMKTLGAYFINEEEKAKLEKFMFGVNAYSADVNNARLNPKCPGMSPQWFAEQVGIKVPEDCNIICAVCKEVGPNEPLTREKLSPVLAILKAENTQDGIDKAEAMVEFNGRGHSAAIHSNDKAVVEKYALTMKACRILHNTPSSQGGIGSIYNYIWPSFTLGCGSYGGNSVSANVTYHNLLNIKRLADRRNNLQWFRVPPKIFFEPHSIRYLAELKELSKIFIVSDRMMYKLGYVDRVMDVLKRRSNEVEIEIFIDVEPDPSIQTVQKGLAVMNTFGPDNIIAIGGGSAMDAAKIMWLLYEHPEADFFAMKQKFIDLRKRAFKFPTMGKKARLICIPTTSGTGSEVTPFAVISDHETGKKYPLADYSLTPSVAIVDPMFTMSLPKRAIADTGLDVLVHATEAYVSVMANEYTDGLAREAVKLVFENLLKSYNGDLEAREKMHNAATIAGMAFASAFLGMDHSMAHKVGAAFHLPHGRCVAVLLPHVIRYNGQKPRKLAMWPKYNFYKADQRYMELAQMVGLKCNTPAEGVEAFAKACEELMKATETITGFKQANIDEAAWMSKVPEMALLAFEDQCSPANPRVPMVKDMEKILKAAYYPIA
notes: a NcoI site at the initiating ATG codon using PCR with the EhADH2 cDNA as the template; made in house; host or cells: E. coli SHH31(DE3) carrying pET/EhADH2
B1 showed a Km [4] of 2900 µM, a Km [5] of 40000 µM and a Km [6] of 85000 µM. For the same molecule, the Km [7] was 280 µM, the Km [8] was 40 µM and the Km [9] was 170 µM.
